# Assay results taken from US20250040549A1, “FUNGICIDAL COMPOSITIONS” (SYNGENTA CROP PROTECTION AG, priority 2021, published 2025).
# How the values were obtained:
# [1] = system: Alternaria solani; test: Alternaria solani growth inhibition in nutrient broth, microtiter plate; format: cell-based; details: alone, 48 hrs
# Description: (§1) Alternaria solani (Early Blight Tomato/Potato): Conidia of the fungus from cryogenic storage were directly mixed into nutrient broth (PDB potato dextrose broth). A DMSO solution of the test compounds was placed into a microtiter plate (96-well format) and the nutrient broth containing the fungal spores was added to it. The test plates were incubated at 24 C and the inhibition of growth was determined photometrically after 48 hrs.
# [2] = system: Botrytis cinerea; test: Botrytis cinerea growth inhibition in nutrient broth, microtiter plate; format: cell-based; details: alone, 72 hrs
# Description: as §1, with “Botrytis cinerea (Gray Mould):” for “Alternaria solani (Early Blight Tomato/Potato):”, “([…]” for “(PDB”, “72” for “48”
# [3] = system: Glomerella Lagenarium Syn. Colletotrichum lagenarium; test: Glomerella lagenarium growth inhibition in nutrient broth, microtiter plate; format: cell-based; details: alone, 72 hrs
# Description: as §1, with “Glomerella Lagenarium Syn. Colletotrichum lagenarium (Anthracnose of Cucurbits):” for “Alternaria solani (Early Blight Tomato/Potato):”, “72 hrs at 620 nm.” for “48 hrs.”
# [4] = system: Mycosphaerella arachidis Syn. Cercospora arachidicola; test: Mycosphaerella arachidis growth inhibition in nutrient broth, microtiter plate; format: cell-based; details: alone, 5-6 days
# Description: as §1, with “Mycosphaerella arachidis Syn. Cercospora arachidicola (Brown Leaf Spot of Peanut):” for “Alternaria solani (Early Blight Tomato/Potato):”, “5-6 days at 620 nm” for “48 hrs.”
# [5] = system: Phakopsora pachyrhizi (Asian soybean rust); test: Phakopsora pachyrhizi on leaf disks from sprayed soybean plants; format: in vivo; details: alone, 11 to 14 days after inoculation; for inhibition at 1 g/ha: 1 g ai/ha
# Description: Phakopsora Pachyrhizi (Soybean Rust):
# Whole soybean plants are treated with the recited active ingredients 4 weeks after planting. 1 day after spraying leaf disks are cut from the first trifoliate leaf. Five repetitions at each rate are conducted. The leaf disks are inoculated with Phakopsora pachyrhizi (Asian soybean rust) one day after treatment. Evaluation of the leaf disks is conducted 11 to 14 days after inoculation and the activity is derived from the relation of the treated vs untreated, infested check. The rates of the active ingredients used are given in Table as g active ingredient (a.i.)/ha.
# [6] = system: Sclerotinia sclerotiorum; test: Sclerotinia sclerotiorum growth inhibition in nutrient broth, microtiter plate; format: cell-based; details: alone, 72 hrs
# Description: as §1, with “Sclerotinia sclerotiorum (Cottony Rot, White Mold, Etc.): Mycelial fragments” for “Alternaria solani (Early Blight Tomato/Potato): Conidia”, “fungus prepared” for “fungus”, “a fresh liquid culture” for “cryogenic storage”, “72 hrs at 620 nm.” for “48 hrs.”
# [7] = system: Septoria tritici; test: Septoria tritici growth inhibition in nutrient broth, microtiter plate; format: cell-based; details: alone, 72 hrs
# Description: as §1, with “Septoria tritici (Leaf Blotch):” for “Alternaria solani (Early Blight Tomato/Potato):”, “72” for “48”
# [8] = Phakopsora pachyrhizi, foliar, read-out: Observed Activity (%)
SMILES,Observed Activity (%) ([1]; 0.005 g ai/ha),Observed Activity (%) ([2]; 0.005 g ai/ha),Observed Activity (%) ([3]; 0.001 g ai/ha),Observed Activity (%) ([3]; 0.005 g ai/ha),Observed Activity (%) ([4]; 0.001 g ai/ha),Observed Activity (%) ([4]; 0.005 g ai/ha),"inhibition at 1 g/ha [5, 8]",Observed Activity (%) ([6]; 0.001 g ai/ha),Observed Activity (%) ([6]; 0.005 g ai/ha),Observed Activity (%) ([7]; 0.001 g ai/ha),Observed Activity (%) ([5]; 0.25 g ai/ha),Observed Activity (%) ([5]; 0.5 g ai/ha),further results
"COC(=O)NCc1cc(-c2ccn(-c3c(F)cc(C(C)C)cc3F)n2)ccc1C [Compound A-1.1, Methyl N-[[5-[1-(2,6-difluoro-4-isopropyl-phenyl)pyrazol-3-yl]-2-methyl-phenyl]methyl]carbamate]",0%,0%,0%,0%,0%,20%,0%,0%,0%,20%,,,
"O=C(Nc1ccccc1F)c1ccc(-c2noc(C(F)(F)F)n2)cc1 [Flufenoxadiazam, flufenoxadiazam]",,,,,,,,,,,0%,10%,Observed Activity (%) ([1]; 2.22 g ai/ha): 0%; Observed Activity (%) ([1]; 6.66 g ai/ha): 0%; Observed Activity (%) ([1]; 20 g ai/ha): 0%
"COC(=O)NCc1cc(-c2ccn(-c3c(F)cc(C4CC4)cc3F)n2)ccc1C [Compound A-1.3, methyl N-[[5-[1-(4-cyclopropyl-2,6-difluoro-phenyl)pyrazol-3-yl]-2-methyl-phenyl]methyl]carbamate]",20%,0%,0%,0%,0%,50%,2%,0%,0%,50%,,,"Observed Activity (%) ([1]; 0.01 g ai/ha): 50%; inhibition at 0.5 g/ha ([5]; Phakopsora pachyrhizi, foliar, 0.5 g ai/ha, read-out: Observed Activity (%)): 0%"
"CCC(=O)Oc1c(OC)ccnc1C(=O)N[C@@H](C)C(=O)O[C@@H](C)[C@@H](C)c1ccccc1C [Metarylpicoxamid, metarylpicoxamid]",,,,,,,,,,,0%,34%,Observed Activity (%) ([1]; 0.074 g ai/ha): 0%; Observed Activity (%) ([1]; 0.22 g ai/ha): 20%; Observed Activity (%) ([1]; 0.66 g ai/ha): 50%; Observed Activity (%) ([2]; 0.0246 g ai/ha): 0%; Observed Activity (%) ([2]; 0.074 g ai/ha): 20%; Observed Activity (%) ([2]; 0.22 g ai/ha): 50%; Observed Activity (%) ([3]; 0.22 g ai/ha): 0%; Observed Activity (%) ([3]; 0.66 g ai/ha): 0%; Observed Activity (%) ([3]; 2 g ai/ha): 70%; Observed Activity (%) ([4]; 0.0080 g ai/ha): 20%; Observed Activity (%) ([4]; 0.0246 g ai/ha): 50%; Observed Activity (%) ([6]; 2 g ai/ha): 50%; Observed Activity (%) ([7]; 0.008 g ai/ha): 20%; Observed Activity (%) ([7]; 0.0246 g ai/ha): 50%; Observed Activity (%) ([7]; 0.074 g ai/ha): 70%
